# Source: ChEMBL document CHEMBL4004838, “Design and synthesis of novel phenyl -1, 4-beta-carboline-hybrid molecules as potential anticancer agents” (Eur J Med Chem, 2017)
# Key:
# SN12C [1] = assay: Growth inhibition of human SN12C cells assessed as cell growth at 100 uM incubated for 48 hrs by sulforhodamine B assay relative to control; format: functional; conditions: read-out: Activity
# SN12C [2] = assay: Growth inhibition of human SN12C cells incubated for 48 hrs by sulforhodamine B assay; format: functional
# SN12C [3] = assay: Growth inhibition of human SN12C cells assessed as cell growth at 0.01 uM incubated for 48 hrs by sulforhodamine B assay relative to control; format: functional; conditions: read-out: Activity
# LOX IMVI = assay: Growth inhibition of human LOXIMVI cells incubated for 48 hrs by sulforhodamine B assay; format: functional
# SK-OV-3 [4] = assay: Growth inhibition of human SKOV3 cells incubated for 48 hrs by sulforhodamine B assay; format: functional; conditions: SK-OV-3, 48 h
# SF-539 = assay: Growth inhibition of human SF539 cells incubated for 48 hrs by sulforhodamine B assay; format: functional; conditions: SF-539, 48 h
# DU-145 = assay: Growth inhibition of human DU145 cells assessed as cell growth at 0.1 uM incubated for 48 hrs by sulforhodamine B assay relative to control; format: functional; conditions: DU-145, 48 h, read-out: Activity
# MDA-MB-231 = assay: Growth inhibition of human MDA-MB-231 cells incubated for 48 hrs by sulforhodamine B assay; format: functional; conditions: MDA-MB-231, 48 h
# Albumin [5] = target: T1, Albumin (Bos taurus, UniProt P02769); assay: Binding affinity to Bovine serum albumin assessed as at 0.10 to 1 uM by UV-Visible spectrophotometric method; format: ADME; conditions: cattle, isolated protein
# T1 sequence (P02769 whole entry): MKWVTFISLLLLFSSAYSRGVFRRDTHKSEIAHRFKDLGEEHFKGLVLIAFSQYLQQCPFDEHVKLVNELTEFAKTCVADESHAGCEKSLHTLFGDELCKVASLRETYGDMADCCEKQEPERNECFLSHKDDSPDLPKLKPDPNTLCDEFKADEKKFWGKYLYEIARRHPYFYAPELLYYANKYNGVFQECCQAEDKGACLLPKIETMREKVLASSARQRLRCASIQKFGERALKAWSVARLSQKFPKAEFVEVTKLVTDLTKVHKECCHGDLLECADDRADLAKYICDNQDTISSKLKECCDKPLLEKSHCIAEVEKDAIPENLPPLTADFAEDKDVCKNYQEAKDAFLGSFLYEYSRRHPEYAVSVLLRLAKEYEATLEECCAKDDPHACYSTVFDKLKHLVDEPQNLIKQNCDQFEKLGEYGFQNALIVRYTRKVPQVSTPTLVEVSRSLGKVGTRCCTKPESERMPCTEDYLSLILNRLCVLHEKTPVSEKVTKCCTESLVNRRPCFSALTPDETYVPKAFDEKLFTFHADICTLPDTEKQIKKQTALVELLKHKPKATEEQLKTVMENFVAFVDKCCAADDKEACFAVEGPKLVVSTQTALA
# K562 = assay: Growth inhibition of human K562 cells assessed as cell growth at 100 uM incubated for 48 hrs by sulforhodamine B assay relative to control; format: functional; conditions: K562, 48 h, read-out: Activity
# M14 [6] = assay: Growth inhibition of human M14 cells assessed as cell growth at 0.01 uM incubated for 48 hrs by sulforhodamine B assay relative to control; format: functional; conditions: M14, 48 h, read-out: Activity
# LNCaP = assay: Cytotoxicity against human LNCAP cells assessed as cell viability after 72 hrs by MTT assay; format: functional, cell-based
# Albumin [7] = target: T1, Albumin; assay: Binding affinity to Bovine serum albumin assessed as fluorescence quenching at […] by fluorescence spectroscopic assay; format: ADME; conditions: cattle, isolated protein
# UACC-62 = assay: Growth inhibition of human UACC62 cells assessed as cell growth at 100 uM incubated for 48 hrs by sulforhodamine B assay relative to control; format: functional; conditions: UACC-62, 48 h, read-out: Activity
# SK-OV-3 [8] = assay: Growth inhibition of human SKOV3 cells assessed as cell growth at 0.01 uM incubated for 48 hrs by sulforhodamine B assay relative to control; format: functional; conditions: SK-OV-3, 48 h, read-out: Activity
# RPMI-8226 = assay: Growth inhibition of human RPMI8226 cells assessed as cell growth at 100 uM incubated for 48 hrs by sulforhodamine B assay relative to control; format: functional; conditions: RPMI-8226, 48 h, read-out: Activity
# SN12C [9] = assay: Growth inhibition of human SN12C cells assessed as cell growth at 0.1 uM incubated for 48 hrs by sulforhodamine B assay relative to control; format: functional; conditions: read-out: Activity
# RXF 393 = assay: Growth inhibition of human RXF393 cells assessed as cell growth at 100 uM incubated for 48 hrs by sulforhodamine B assay relative to control; format: functional; conditions: RXF 393, 48 h, read-out: Activity
# SN12C [10] = assay: Growth inhibition of human SN12C cells assessed as cell growth at 1 uM incubated for 48 hrs by sulforhodamine B assay relative to control; format: functional; conditions: read-out: Activity
# Hs-578T = assay: Growth inhibition of human Hs 578T cells assessed as cell growth at 0.1 uM incubated for 48 hrs by sulforhodamine B assay relative to control; format: functional; conditions: read-out: Activity
# MCF7 = assay: Cytotoxicity against human MCF7 cells assessed as cell viability after 72 hrs by MTT assay; format: functional, cell-based; conditions: MCF7, 72 h
# M14 [11] = assay: Growth inhibition of human M14 cells assessed as cell growth at 1 uM incubated for 48 hrs by sulforhodamine B assay relative to control; format: functional; conditions: M14, 48 h, read-out: Activity
# SW-620 = assay: Growth inhibition of human SW620 cells assessed as cell growth at 0.1 uM incubated for 48 hrs by sulforhodamine B assay relative to control; format: functional; conditions: SW-620, 48 h, read-out: Activity
# HepG2 = assay: Cytotoxicity against human HepG2 cells assessed as cell viability after 72 hrs by MTT assay; format: functional, cell-based; conditions: HepG2, 72 h
# SNB-19 = assay: Growth inhibition of human SNB19 cells incubated for 48 hrs by sulforhodamine B assay; format: functional; conditions: SNB-19, 48 h
# OVCAR-8 [12] = assay: Growth inhibition of human OVCAR8 cells assessed as cell growth at 0.1 uM incubated for 48 hrs by sulforhodamine B assay relative to control; format: functional; conditions: OVCAR-8, 48 h, read-out: Activity
# NCI/ADR-RES = assay: Growth inhibition of human NCI-ADR-RES cells assessed as cell growth at 0.01 uM incubated for 48 hrs by sulforhodamine B assay relative to control; format: functional; conditions: read-out: Activity
# OVCAR-8 [13] = assay: Growth inhibition of human OVCAR8 cells assessed as cell growth at 1 uM incubated for 48 hrs by sulforhodamine B assay relative to control; format: functional; conditions: OVCAR-8, 48 h, read-out: Activity
# Albumin [14] = target: T1, Albumin; assay: Binding affinity to Bovine serum albumin assessed as fluorescence quenching at 0.1 to 1 uM at […] by fluorescence spectroscopic assay; format: ADME; conditions: cattle, isolated protein
# OVCAR-8 [15] = assay: Growth inhibition of human OVCAR8 cells assessed as cell growth at 100 uM incubated for 48 hrs by sulforhodamine B assay relative to control; format: functional; conditions: OVCAR-8, 48 h, read-out: Activity
# OVCAR-8 [16] = assay: Growth inhibition of human OVCAR8 cells incubated for 48 hrs by sulforhodamine B assay; format: functional; conditions: OVCAR-8, 48 h
# [17] = read-out: LC50 (the source's name)
# [18] = read-out: pLC50 (the source's name) (converted)
smiles,measurement,setting,value
c1ccc2c3c([nH]c2c1)C(c1ccc(C2NCCc4c2[nH]c2ccccc42)cc1)NCC3 (racemic),growth at 100 µM,SN12C [1],-93%
same,GI50,SN12C [2]; read-out: GI50,1.47 µM
same,CC50,SN12C [2]; [17],6.31 µM
same,TGI,SN12C [2]; read-out: TGI,3.05 µM
same,GI50,SN12C [2]; read-out: pGI50 (converted),1.48 µM
same,CC50,SN12C [2]; [18],6.31 µM
same,TGI,SN12C [2]; read-out: pTGI (converted),3.02 µM
same,growth at 0.01 µM,SN12C [3],96%
same,GI50,LOX IMVI; read-out: GI50,1.96 µM
same,CC50,LOX IMVI; [17],1.1 µM
same,TGI,LOX IMVI; read-out: TGI,4.5 µM
same,GI50,LOX IMVI; read-out: pGI50 (converted),0.195 µM
same,CC50,LOX IMVI; [18],1.1 µM
same,TGI,LOX IMVI; read-out: pTGI (converted),4.47 µM
same,GI50,SK-OV-3 [4]; read-out: GI50,1.88 µM
same,CC50,SK-OV-3 [4]; [17],9.12 µM
same,TGI,SK-OV-3 [4]; read-out: TGI,4.14 µM
same,GI50,SK-OV-3 [4]; read-out: pGI50 (converted),1.86 µM
same,CC50,SK-OV-3 [4]; [18],9.12 µM
same,TGI,SK-OV-3 [4]; read-out: pTGI (converted),4.17 µM
same,GI50,SF-539; read-out: GI50,1.62 µM
same,CC50,SF-539; [17],5.71 µM
same,TGI,SF-539; read-out: TGI,3.04 µM
same,GI50,SF-539; read-out: pGI50 (converted),1.62 µM
same,CC50,SF-539; [18],5.75 µM
same,TGI,SF-539; read-out: pTGI (converted),3.02 µM
same,growth at 0.1 µM,DU-145,100%
same,GI50,MDA-MB-231; read-out: GI50,2.96 µM
same,CC50,MDA-MB-231; [17],3.64 µM
same,TGI,MDA-MB-231; read-out: TGI,9.36 µM
same,GI50,MDA-MB-231; read-out: pGI50 (converted),0.295 µM
same,CC50,MDA-MB-231; [18],3.63 µM
same,Activity,Albumin [5],Active
same,growth at 100 µM,K562,78%
same,growth at 0.01 µM,M14 [6],92%
same,IC50,LNCaP,5.52 µg/mL
same,Activity,Albumin [7],Dose-dependent effect
same,growth at 100 µM,UACC-62,93%
same,growth at 0.01 µM,SK-OV-3 [8],91%
same,growth at 100 µM,RPMI-8226,75%
same,growth at 0.1 µM,SN12C [9],95%
same,growth at 100 µM,RXF 393,-81%
same,growth at 1 µM,SN12C [10],77%
same,growth at 0.1 µM,Hs-578T,90%
same,IC50,MCF7,3.34 µg/mL
same,growth at 1 µM,M14 [11],21%
same,growth at 0.1 µM,SW-620,100%
same,IC50,HepG2,4.43 µg/mL
same,GI50,SNB-19; read-out: GI50,1.73 µM
same,CC50,SNB-19; [17],7.25 µM
same,TGI,SNB-19; read-out: TGI,3.54 µM
same,GI50,SNB-19; read-out: pGI50 (converted),1.74 µM
same,CC50,SNB-19; [18],7.24 µM
same,TGI,SNB-19; read-out: pTGI (converted),3.55 µM
c1ccc2[nH]c(-c3ccc(-c4nccc5c4[nH]c4ccccc45)cc3)nc2c1,growth at 0.1 µM,OVCAR-8 [12],103%
same,GI50,LOX IMVI; read-out: GI50,1.67 µM
same,TGI,LOX IMVI; read-out: TGI,3.82 µM
same,GI50,LOX IMVI; read-out: pGI50 (converted),1.66 µM
same,TGI,LOX IMVI; read-out: pTGI (converted),3.8 µM
same,CC50,SK-OV-3 [4]; [17],4.66 µM
same,GI50,SK-OV-3 [4]; read-out: pGI50 (converted),4.37 µM
same,CC50,SK-OV-3 [4]; [18],46.8 µM
same,TGI,SK-OV-3 [4]; read-out: pTGI (converted),15.8 µM
same,GI50,SF-539; read-out: GI50,1.89 µM
same,CC50,SF-539; [17],7.17 µM
same,TGI,SF-539; read-out: TGI,3.68 µM
same,GI50,SF-539; read-out: pGI50 (converted),1.91 µM
same,CC50,SF-539; [18],7.24 µM
same,TGI,SF-539; read-out: pTGI (converted),3.72 µM
same,growth at 0.1 µM,DU-145,96%
same,GI50,MDA-MB-231; read-out: GI50,2.39 µM
same,TGI,MDA-MB-231; read-out: TGI,5.83 µM
same,GI50,MDA-MB-231; read-out: pGI50 (converted),2.4 µM
same,CC50,MDA-MB-231; [18],> 100 µM
same,TGI,MDA-MB-231; read-out: pTGI (converted),5.89 µM
same,Activity,Albumin [5],Active
same,growth at 0.01 µM,NCI/ADR-RES,99%
same,growth at 100 µM,K562,59%
same,growth at 0.01 µM,M14 [6],93%
same,growth at 100 µM,UACC-62,57%
same,growth at 0.01 µM,SK-OV-3 [8],93%
same,growth at 1 µM,OVCAR-8 [13],99%
same,growth at 100 µM,RPMI-8226,43%
same,growth at 100 µM,RXF 393,68%
same,growth at 0.1 µM,Hs-578T,100%
same,growth at 1 µM,M14 [11],92%
same,growth at 0.1 µM,SW-620,103%
same,Activity,Albumin [14],Active
same,growth at 100 µM,OVCAR-8 [15],28%
same,GI50,OVCAR-8 [16],3.31 µM
same,CC50,OVCAR-8 [16]; [17],> 1 µM
same,CC50,OVCAR-8 [16]; read-out: pLC50 (converted),> 100 µM
same,TGI,OVCAR-8 [16]; read-out: pTGI (converted),13.5 µM
same,GI50,SNB-19; read-out: GI50,4.21 µM
same,CC50,SNB-19; [17],> 1 µM
same,GI50,SNB-19; read-out: pGI50 (converted),4.17 µM
same,CC50,SNB-19; [18],> 100 µM
same,TGI,SNB-19; read-out: pTGI (converted),30.2 µM
